# Patent US9790135B2, “Use of acylated carbonic esters of glycerol in agriculture” (AGRONUTRITION, priority 2013, dated 2017)
# Tests used:
# [1] = Stability of the concentrated colloidal suspension towards sedimentation; format: physicochemical; conditions: concentrated colloidal suspension of MnCO3 (and MnSO4) in glycerol/water with the adjuvant
# Method: The concentrated colloidal suspension is stable towards sedimentation over time—in particular over a period of 12 months—and is capable of being stored at a temperature of from −50° C. to +50° C. without any alteration of its rheological properties or of the stimulating and/or nutritive properties of the nutritive composition obtained by dilution of the concentrated colloidal suspension. Such a concentrated colloidal suspension can therefore be proposed for sale, marketed and distributed while retaining the stimulating and/or nutritive properties of the nutritive composition.
# Cyclic glycerol carbonate (CG) of formula (VI), glycerol, water and manganese carbonate (MnCO3) in the form of a solid in the divided state, the solid particles of which have a mean size of approximately 2 μm, are mixed.
# soya = test: Foliar manganese content of soya after foliar application of nutritive MnCO3 compositions; conditions: soya crop, 500 g manganese carbonate per hectare
# [2] = test system: winter common wheat (variety Quality, ARVALIS); test: Manganese content retained in leaves of treated winter common wheat; format: in vivo
# Method: A powder of manganese carbonate (MnCO3, CAS 598-62-9) having a mean particle size of substantially approximately 2 μm is prepared by grinding. A concentrated colloidal suspension comprising 58.7% of this powder in a liquid composition comprising 1.5% glycerol carbonate acetate (ECG-C2, as described in Example 3 and in Table 1), […], 7.5% water and 1% jojoba oil, the indicated percentages being percentages by mass. The concentrated colloidal suspension is diluted in water to form a treatment composition (Mn385) according to the invention which is suitable for applying, by spraying on the cultivated surface area, a quantity of manganese carbonate of 385 g per hectare of cultivated surface area.
# There are also prepared: • a concentrated colloidal suspension as described in Example 4, and this concentrated colloidal suspension is diluted in water to form a nutritive composition (Mn457) according to the invention which is suitable for applying, by spraying, a quantity of manganese carbonate of 457 g per hectare of surface area; and • a concentrated colloidal suspension as described in Example 7, and this concentrated colloidal suspension is diluted in water to form a nutritive composition (Mn509) according to the invention which is suitable for applying, by spraying, a quantity of manganese carbonate of 509 g per hectare of cultivated surface area.
# The nutritive compositions Mn385, Mn457 and Mn509 according to the invention are applied by spraying to plots of 4 parcels having a surface area of 16 m^2 cultivated with winter common wheat (variety “Quality”, ARVALIS).
# There are also prepared in parallel: • on a plot of 4 16 m^2 parcels, a crop of winter common wheat treated by spraying with water, as negative control; and • on a plot of 4 16 m^2 parcels, a crop of winter common wheat treated with MnCO3 on its own (without adjuvant according to the invention) at a rate of 500 g per hectare, as control treatment; and • on a plot of 4 16 m^2 parcels, a crop of winter common wheat treated, by way of comparison, with a formulation of MANTRAC 500 at a rate of 500 g of MnCO3 per hectare.
# The manganese content retained in the leaves of treated common wheat is measured one day (D+1), seven days (D+7), 14 days (D+14) and 21 days (D+21) after application. To that end, the leaves are removed and washed three times with water to remove the manganese carbonate that has not been absorbed by the plant, and the manganese absorbed into the leaves is then assayed. The results are given in Table 2 below and are expressed in ppm (μg of manganese per gram of leaf).
# The kinetics of daily MnCO3 assimilation in the leaves are measured.
compound,measurement,setting,value
"CC(=O)OCC1COC(=O)O1 (stereo not drawn) [ECG-C2, cyclic α/α′-acetylated glycerol carbonic ester]",stability of the concentrated colloidal suspension (settling of particles),[1],stable over time
"CCCCCCC(=O)OCC1COC(=O)O1 (stereo not drawn) [ECG-C7, cyclic α/α′-heptanoylated glycerol carbonic ester]",stability of the concentrated colloidal suspension (settling of particles),[1],stable over time
"CCCCCCCCC(=O)OCC1COC(=O)O1 (stereo not drawn) [ECG-C9, cyclic α/α′-nonanoylated glycerol carbonic ester]",stability of the concentrated colloidal suspension (settling of particles),[1],stable over time
"C=CCCCCCCCCC(=O)OCC1COC(=O)O1 (stereo not drawn) [ECG-C11:1, cyclic α/α′-undecylenoylated glycerol carbonic ester]",stability of the concentrated colloidal suspension (settling of particles),[1],stable over time
"CCCCCCCC/C=C\CCCCCCCC(=O)OCC1COC(=O)O1 (stereo not drawn) [ECG-C18:1, cyclic α/α′-oleylated glycerol carbonic ester]",stability of the concentrated colloidal suspension (settling of particles),[1],stable over time
same,foliar manganese content reached (maximum) up to four days after application,soya,greater than 250 ppm
manganese carbonate [MnCO3 on its own],results relative to the negative control (water) (in words),"[2]; 500 g per hectare, without adjuvant",do not differ from the results obtained with the negative control
same,"manganese content retained in the leaves, D + 14",[2]; 14 days after application,112.50 +/− 45.35 ppm (μg of manganese per gram of leaf)
same,"manganese content retained in the leaves, D + 21",[2]; 21 days after application,95.43 +/− 5.95 ppm (μg of manganese per gram of leaf)
same,"manganese content retained in the leaves, D + 1","[2]; one day after application, leaves washed three times with water",84.83 +/− 28.01 ppm (μg of manganese per gram of leaf)
same,"manganese content retained in the leaves, D + 7",[2]; seven days after application,74.83 +/− 19.14 ppm (μg of manganese per gram of leaf)
